Here are results for 15 compounds from patent US20140343000A1 (priority 2011, published 2014).

Bounds are passed on as bounds.

This experiment deals with recombinant NL4-3 virus (Renilla luciferase in nef, Gag P373S; NLRluc) in MT-2 cells. Put plainly: whole plant or invertebrate. Type of experiment: cell-based, HIV. Particulars: Renilla, NL43, luciferase activity in cells infected for 4-5 days with NLRluc recombinants, serial dilutions of inhibitor; class symbols (key in Table 1); read-out: EC50. The procedure, abridged: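 First, reporter virus was generated in 293T cells and titered on MT-2 cells. Next, MT-2 cells were infected in the presence of serial compound dilutions for 4-5 days. Finally, cells were lysed and luciferase activity was measured to quantify inhibition.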
As for `CC(C)[C@@H]1CC[C@]2(NCCN3CCC(S(C)(=O)=O)CC3)CC[C@]3(C)[C@H](CC[C@@H]4[C@@]5(C)CC[C@H](c6ccc(C(=O)O)cc6)C(C)(C)[C@@H]5CC[C@]43C)[C@@H]12` [Example B18, 4-((1S,3aS,5aR,5bR,7aS,9S,11aS,11bR,13aR,13bR)-1-isopropyl-5a,5b,8,8,11a-pentamethyl-3a-((2-(4-(methylsulfonyl)piperidin-1-yl)ethyl)amino)icosahydro-1H-cyclopenta[a]chrysen-9-yl)benzoic acid], the EC50 is < 100 nM.
Consider `C=C(C)[C@@H]1CC[C@]2(NCCN3CCN(S(=O)(=O)CC)CC3)CC[C@]3(C)[C@H](CC[C@@H]4[C@@]5(C)CC=C(c6ccc(C(=O)O)cc6)C(C)(C)[C@@H]5CC[C@]43C)[C@@H]12` [Example B19, 4-((1R,3aS,5aR,5bR,7aR,11aS,11bR,13aR,13bR)-3a-((2-(4-(ethylsulfonyl)piperazin-1-yl)ethyl)amino)-5a,5b,8,8,11a-pentamethyl-1-(prop-1-en-2-yl)-2,3,3a,4,5,5a,5b,6,7,7a,8,11,11a,11b,12,13,13a,13b-octadecahydro-1H-cyclopenta[a]chrysen-9-yl)benzoic acid], for which the 50% effective concentration (EC50) is < 100 nM.
Regarding `C=C(C)[C@@H]1CC[C@]2(NCCN3CCNCC3)CC[C@]3(C)[C@H](CC[C@@H]4[C@@]5(C)CC=C(c6ccc(C(=O)O)cc6)C(C)(C)[C@@H]5CC[C@]43C)[C@@H]12` [Example B20, 4-((1R,3aS,5aR,5bR,7aR,11aS,11bR,13aR,13bR)-5a,5b,8,8,11a-pentamethyl-3a-((2-(piperazin-1-yl)ethyl)amino)-1-(prop-1-en-2-yl)-2,3,3a,4,5,5a,5b,6,7,7a,8,11,11a,11b,12,13,13a,13b-octadecahydro-1H-cyclopenta[a]chrysen-9-yl)benzoic acid], the concentration for a half-maximal effect (EC50) was < 100 nM.
`C=C(C)[C@@H]1CC[C@]2(NCCNS(C)(=O)=O)CC[C@]3(C)[C@H](CC[C@@H]4[C@@]5(C)CC=C(c6ccc(C(=O)O)cc6)C(C)(C)[C@@H]5CC[C@]43C)[C@@H]12` [Example B21, 4-((1R,3aS,5aR,5bR,7aR,11aS,11bR,13aR,13bR)-5a,5b,8,8,11a-pentamethyl-3a-((2-(methylsulfonamido)ethyl)amino)-1-(prop-1-en-2-yl)-2,3,3a,4,5,5a,5b,6,7,7a,8,11,11a,11b,12,13,13a,13b-octadecahydro-1H-cyclopenta[a]chrysen-9-yl)benzoic acid]: the EC50 is < 100 nM.
As to `C=C(C)[C@@H]1CC[C@]2(NCCN3CCN(S(=O)(=O)C4CC4)CC3)CC[C@]3(C)[C@H](CC[C@@H]4[C@@]5(C)CC=C(c6ccc(C(=O)O)cc6)C(C)(C)[C@@H]5CC[C@]43C)[C@@H]12` [Example B22, 4-((1R,3aS,5aR,5bR,7aR,11aS,11bR,13aR,13bR)-3a-((2-(4-(cyclopropylsulfonyl)piperazin-1-yl)ethyl)amino)-5a,5b,8,8,11a-pentamethyl-1-(prop-1-en-2-yl)-2,3,3a,4,5,5a,5b,6,7,7a,8,11,11a,11b,12,13,13a,13b-octadecahydro-1H-cyclopenta[a]chrysen-9-yl)benzoic acid], the EC50 is < 100 nM.
As for `C=C(C)[C@@H]1CC[C@]2(NCCN3CCN(S(=O)(=O)CCC)CC3)CC[C@]3(C)[C@H](CC[C@@H]4[C@@]5(C)CC=C(c6ccc(C(=O)O)cc6)C(C)(C)[C@@H]5CC[C@]43C)[C@@H]12` [Example B23, 4-((1R,3aS,5aR,5bR,7aR,11aS,11bR,13aR,13bR)-5a,5b,8,8,11a-pentamethyl-1-(prop-1-en-2-yl)-3a-((2-(4-(propylsulfonyl)piperazin-1-yl)ethyl)amino)-2,3,3a,4,5,5a,5b,6,7,7a,8,11,11a,11b,12,13,13a,13b-octadecahydro-1H-cyclopenta[a]chrysen-9-yl)benzoic acid], the half-maximal effective concentration (EC50) is < 100 nM.
In the case of `C=C(C)[C@@H]1CC[C@]2(NCCN3CCN(C(C)=O)CC3)CC[C@]3(C)[C@H](CC[C@@H]4[C@@]5(C)CC=C(c6ccc(C(=O)O)cc6)C(C)(C)[C@@H]5CC[C@]43C)[C@@H]12` [Example B24, 4-((1R,3aS,5aR,5bR,7aR,11aS,11bR,13aR,13bR)-3a-((2-(4-acetylpiperazin-1-yl)ethyl)amino)-5a,5b,8,8,11a-pentamethyl-1-(prop-1-en-2-yl)-2,3,3a,4,5,5a,5b,6,7,7a,8,11,11a,11b,12,13,13a,13b-octadecahydro-1H-cyclopenta[a]chrysen-9-yl)benzoic acid], the EC50 is < 100 nM.
With `C=C(C)[C@@H]1CC[C@]2(NCCN3CCN(C(=O)C(=O)N(C)C)CC3)CC[C@]3(C)[C@H](CC[C@@H]4[C@@]5(C)CC=C(c6ccc(C(=O)O)cc6)C(C)(C)[C@@H]5CC[C@]43C)[C@@H]12` [Example B25, 4-((1R,3aS,5aR,5bR,7aR,11aS,11bR,13aR,13bR)-3a-((2-(4-(2-(dimethylamino)-2-oxoacetyl)piperazin-1-yl)ethyl)amino)-5a,5b,8,8,11a-pentamethyl-1-(prop-1-en-2-yl)-2,3,3a,4,5,5a,5b,6,7,7a,8,11,11a,11b,12,13,13a,13b-octadecahydro-1H-cyclopenta[a]chrysen-9-yl)benzoic acid] the figure was < 100 nM; with `C=C(C)[C@@H]1CC[C@]2(NCCN3CCN(S(=O)(=O)C(C)C)CC3)CC[C@]3(C)[C@H](CC[C@@H]4[C@@]5(C)CC=C(c6ccc(C(=O)O)cc6)C(C)(C)[C@@H]5CC[C@]43C)[C@@H]12` [Example B26, 4-((1R,3aS,5aR,5bR,7aR,11aS,11bR,13aR,13bR)-3a-((2-(4-(isopropylsulfonyl)piperazin-1-yl)ethyl)amino)-5a,5b,8,8,11a-pentamethyl-1-(prop-1-en-2-yl)-2,3,3a,4,5,5a,5b,6,7,7a,8,11,11a,11b,12,13,13a,13b-octadecahydro-1H-cyclopenta[a]chrysen-9-yl)benzoic acid], < 100 nM; with `C=C(C)[C@@H]1CC[C@]2(NCCN3CCN(C(C)(C)C)CC3)CC[C@]3(C)[C@H](CC[C@@H]4[C@@]5(C)CC=C(c6ccc(C(=O)O)cc6)C(C)(C)[C@@H]5CC[C@]43C)[C@@H]12` [Example B27, 4-((1R,3aS,5aR,5bR,7aR,11aS,11bR,13aR,13bR)-3a-((2-(4-(tert-butyl)piperazin-1-yl)ethyl)amino)-5a,5b,8,8,11a-pentamethyl-1-(prop-1-en-2-yl)-2,3,3a,4,5,5a,5b,6,7,7a,8,11,11a,11b,12,13,13a,13b-octadecahydro-1H-cyclopenta[a]chrysen-9-yl)benzoic acid], < 100 nM.
`C=C(C)[C@@H]1CC[C@]2(NCCN3CCN(C)CC3)CC[C@]3(C)[C@H](CC[C@@H]4[C@@]5(C)CC=C(c6ccc(C(=O)O)cc6)C(C)(C)[C@@H]5CC[C@]43C)[C@@H]12` [Example B28, 4-((1R,3aS,5aR,5bR,7aR,11aS,11bR,13aR,13bR)-5a,5b,8,8,11a-pentamethyl-3a-((2-(4-methylpiperazin-1-yl)ethyl)amino)-1-(prop-1-en-2-yl)-2,3,3a,4,5,5a,5b,6,7,7a,8,11,11a,11b,12,13,13a,13b-octadecahydro-1H-cyclopenta[a]chrysen-9-yl)benzoic acid]: the 50% effective concentration (EC50) was < 100 nM.
On to `C=C(C)[C@@H]1CC[C@]2(NCCN3CCN(C(=O)C(=O)N4CCCCC4)CC3)CC[C@]3(C)[C@H](CC[C@@H]4[C@@]5(C)CC=C(c6ccc(C(=O)O)cc6)C(C)(C)[C@@H]5CC[C@]43C)[C@@H]12` [Example B29, 4-((1R,3aS,5aR,5bR,7aR,11aS,11bR,13aR,13bR)-5a,5b,8,8,11a-pentamethyl-3a-((2-(4-(2-oxo-2-(piperidin-1-yl)acetyl)piperazin-1-yl)ethyl)amino)-1-(prop-1-en-2-yl)-2,3,3a,4,5,5a,5b,6,7,7a,8,11,11a,11b,12,13,13a,13b-octadecahydro-1H-cyclopenta[a]chrysen-9-yl)benzoic acid], for which the EC50 is < 100 nM.
In the case of `C=C(C)[C@@H]1CC[C@]2(NCCNS(=O)(=O)C(C)C)CC[C@]3(C)[C@H](CC[C@@H]4[C@@]5(C)CC=C(c6ccc(C(=O)O)cc6)C(C)(C)[C@@H]5CC[C@]43C)[C@@H]12` [Example B30, 4-((1R,3aS,5aR,5bR,7aR,11aS,11bR,13aR,13bR)-5a,5b,8,8,11a-pentamethyl-3a-((2-(1-methylethylsulfonamido)ethyl)amino)-1-(prop-1-en-2-yl)-2,3,3a,4,5,5a,5b,6,7,7a,8,11,11a,11b,12,13,13a,13b-octadecahydro-1H-cyclopenta[a]chrysen-9-yl)benzoic acid], the half-maximal effective concentration (EC50) was < 100 nM.
With `C=C(C)[C@@H]1CC[C@]2(NCCNS(=O)(=O)C3CC3)CC[C@]3(C)[C@H](CC[C@@H]4[C@@]5(C)CC=C(c6ccc(C(=O)O)cc6)C(C)(C)[C@@H]5CC[C@]43C)[C@@H]12` [Example B31, 4-((1R,3aS,5aR,5bR,7aR,11aS,11bR,13aR,13bR)-3a-((2-(cyclopropanesulfonamido)ethyl)amino)-5a,5b,8,8,11a-pentamethyl-1-(prop-1-en-2-yl)-2,3,3a,4,5,5a,5b,6,7,7a,8,11,11a,11b,12,13,13a,13b-octadecahydro-1H-cyclopenta[a]chrysen-9-yl)benzoic acid], the concentration for a half-maximal effect (EC50) is < 100 nM.
As for `C=C(C)[C@@H]1CC[C@]2(NCCN3CCCCS3(=O)=O)CC[C@]3(C)[C@H](CC[C@@H]4[C@@]5(C)CC=C(c6ccc(C(=O)O)cc6)C(C)(C)[C@@H]5CC[C@]43C)[C@@H]12` [Example B32, 4-((1R,3aS,5aR,5bR,7aR,11aS,11bR,13aR,13bR)-3a-((2-(1,1-dioxido-1,2-thiazinan-2-yl)ethyl)amino)-5a,5b,8,8,11a-pentamethyl-1-(prop-1-en-2-yl)-2,3,3a,4,5,5a,5b,6,7,7a,8,11,11a,11b,12,13,13a,13b-octadecahydro-1H-cyclopenta[a]chrysen-9-yl)benzoic acid], the concentration for a half-maximal effect (EC50) was < 100 nM.
